Active and inactive are the calls of the source. No cut-off for these calls is given here.
Experiments:
Assay type in all cases: cell-based
[1] = target: T1, Oxysterols receptor LXR-beta (Homo sapiens, UniProt P55055); test: Agonist activity at full length human LXRbeta expressed in HEK293 cells harboring LXRE-Luc promoter by luciferase reporter gene assay
T1 sequence (P55055 whole entry): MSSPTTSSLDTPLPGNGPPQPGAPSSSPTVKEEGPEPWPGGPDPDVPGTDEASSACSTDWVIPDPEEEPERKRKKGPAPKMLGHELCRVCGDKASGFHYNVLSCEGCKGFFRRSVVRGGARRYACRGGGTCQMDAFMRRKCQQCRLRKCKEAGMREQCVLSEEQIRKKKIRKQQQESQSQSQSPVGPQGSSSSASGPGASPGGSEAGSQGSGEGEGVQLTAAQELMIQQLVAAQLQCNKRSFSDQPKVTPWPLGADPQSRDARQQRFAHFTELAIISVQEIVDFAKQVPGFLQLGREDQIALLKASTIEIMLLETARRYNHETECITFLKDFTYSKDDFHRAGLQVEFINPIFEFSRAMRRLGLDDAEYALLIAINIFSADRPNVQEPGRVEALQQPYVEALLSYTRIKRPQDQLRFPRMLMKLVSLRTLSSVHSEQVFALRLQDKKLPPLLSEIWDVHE

[2] = target: T2, Oxysterols receptor LXR-alpha (Homo sapiens) (UniProt Q13133); test: Agonist activity at full length human LXRalpha expressed in HEK293 cells harboring LXRE-Luc promoter at 10 uM by luciferase reporter gene assay relative to T0901317
T2 sequence (whole entry): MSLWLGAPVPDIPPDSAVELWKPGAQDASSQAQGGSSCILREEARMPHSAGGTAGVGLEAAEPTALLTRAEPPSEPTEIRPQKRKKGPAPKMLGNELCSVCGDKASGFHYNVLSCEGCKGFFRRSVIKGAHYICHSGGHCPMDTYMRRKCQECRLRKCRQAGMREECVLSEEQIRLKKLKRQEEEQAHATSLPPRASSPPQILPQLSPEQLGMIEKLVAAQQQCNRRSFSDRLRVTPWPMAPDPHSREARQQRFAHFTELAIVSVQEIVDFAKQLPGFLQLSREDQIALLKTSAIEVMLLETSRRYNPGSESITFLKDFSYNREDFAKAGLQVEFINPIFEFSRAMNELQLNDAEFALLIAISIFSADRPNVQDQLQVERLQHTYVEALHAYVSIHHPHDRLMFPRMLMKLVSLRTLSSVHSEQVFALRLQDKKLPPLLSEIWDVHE

[3] = target: T3, Oxysterols receptor LXR-alpha (Homo sapiens, UniProt Q13133); test: Agonist activity at full length human LXRalpha expressed in HEK293 cells harboring LXRE-Luc promoter by luciferase reporter gene assay
T3 sequence (Q13133 whole entry): T2 sequence (whole entry)

Homo sapiens = species on record: Homo sapiens; test: Selectivity ratio of EC50 for full length human LXRalpha expressed in HEK293 cells to EC50 for full length human LXRbeta expressed in HEK293 cells
[4] = target: T4, Oxysterols receptor LXR-beta (Homo sapiens) (UniProt P55055); test: Agonist activity at full length human LXRbeta expressed in HEK293 cells harboring LXRE-Luc promoter at 10 uM by luciferase reporter gene assay relative to T0901317
T4 sequence (whole entry): T1 sequence (P55055 whole entry)

SMILES	EC50 [1]	Emax [2]	EC50 [3]	Ratio EC50 (Homo sapiens)	Emax [4]
Cc1ccc(S(=O)(=O)n2nc(-c3ccccc3)nc2-c2ccccc2)cc1	0.259 µM	75%	1.7 µM	6.58	81%
Clc1ccc(-c2n[nH]c(-c3ccccc3)n2)cc1	0.245 µM	51%	0.309 µM	1.26	60%
c1ccc(-c2n[nH]c(-c3ccccc3)n2)cc1	1.01 µM	–	0.142 µM	–	–
CC(=O)n1nc(Cc2ccccc2)nc1-c1ccccc1	1.42 µM	50%	0.701 µM	0.49	68%
c1ccc(-c2n[nH]c(-c3cccnc3)n2)cc1	–	inactive	–	–	inactive
CCCCn1nc(-c2ccccc2)nc1-c1ccccc1	–	65%	2.47 µM	–	inactive
Clc1ccccc1-c1n[nH]c(-c2ccccc2)n1	0.64 µM	–	0.526 µM	–	–
Clc1ccc(-c2nc(-c3ccccc3)n(Cc3ccccc3)n2)cc1	6.71 µM	53%	2.13 µM	0.32	61%
Brc1ccc(-c2nc(-c3ccccc3)n(Cc3ccccc3)n2)cc1	0.712 µM	78%	5.03 µM	7.06	69%
CCn1nc(-c2ccc(Br)cc2)nc1-c1ccccc1	5.65 µM	45%	2.24 µM	0.4	71%
CC(=O)n1nc(-c2ccc(C)cc2)nc1-c1ccccc1	0.351 µM	53%	0.228 µM	0.65	62%
CC(=O)n1nc(-c2ccc(Br)cc2)nc1-c1ccccc1	0.231 µM	–	0.113 µM	–	–
Brc1ccc(-c2n[nH]c(-c3ccccc3)n2)cc1	0.068 µM	55%	0.164 µM	2.41	62%
Cc1ccc(-c2n[nH]c(-c3ccccc3)n2)cc1	0.085 µM	62%	0.077 µM	0.91	73%
CCCCn1nc(-c2ccc(Cl)cc2)nc1-c1ccccc1	–	inactive	–	–	inactive
Cn1nc(-c2ccc(Cl)cc2)nc1-c1ccccc1	1.99 µM	77%	1.19 µM	0.6	83%
Brc1ccccc1-c1n[nH]c(-c2ccccc2)n1	0.493 µM	52%	0.39 µM	0.79	67%
Clc1ccccc1-c1n[nH]c(Cc2ccccc2)n1	0.966 µM	46%	0.57 µM	0.59	61%
Clc1ccc(-c2n[nH]c(Cc3ccccc3)n2)cc1	2.57 µM	inactive	–	–	73%
COc1cccc(-c2nc(-c3ccccc3)n(Cc3ccccc3)n2)c1	2.36 µM	62%	0.903 µM	0.38	69%
c1ccc(Cn2nc(-c3ccccc3)nc2-c2ccccc2)cc1	–	58%	2.18 µM	–	inactive
c1ccc(-c2nc(-c3ccccc3)n(C3CC3)n2)cc1	–	inactive	–	–	inactive
CCn1nc(-c2ccccc2)nc1-c1ccccc1	–	inactive	–	–	inactive
CC(=O)n1nc(-c2ccccc2)nc1-c1ccccc1	0.232 µM	–	0.396 µM	–	–
Cn1nc(-c2ccccc2)nc1-c1ccccc1	2.64 µM	64%	2.47 µM	0.94	71%
COc1cccc(-c2nc(-c3ccccc3)n(C(C)=O)n2)c1	0.109 µM	62%	0.115 µM	1.06	78%
CCn1nc(-c2ccc(Cl)cc2)nc1-c1ccccc1	–	60%	2.29 µM	–	inactive
COc1cccc(-c2nc(-c3ccccc3)n(S(=O)(=O)c3ccc(C)cc3)n2)c1	–	inactive	–	–	inactive
COc1cccc(-c2n[nH]c(-c3ccccc3)n2)c1	0.068 µM	60%	0.108 µM	1.59	72%
c1ccc(Cc2nc(-c3ccccc3)n[nH]2)cc1	6.15 µM	–	2.2 µM	0.36	–
